Measurements as given in PubChem BioAssay (NCI).
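Grown in 96-well plates, cells were treated for 48 hours with each compound at five concentrations. Insufficient inhibition: endpoint recorded as highest concentration tested. At the GI50, growth is halved. TGI: concentration producing complete growth inhibition.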

What was measured:
Assay in all cases: NCI-60 cell line screen, 48 h
HOP-92 NSCLC = system: HOP-92 NSCLC
NCI-H226 lung = system: NCI-H226 lung
RXF 393 renal = system: RXF 393 renal
SK-MEL-2 melanoma = system: SK-MEL-2 melanoma
SK-OV-3 ovarian = system: SK-OV-3 ovarian
SNB-75 CNS = system: SNB-75 CNS
TK-10 renal = system: TK-10 renal
786-0 renal = system: 786-0 renal
A498 renal = system: A498 renal
A549 NSCLC = system: A549 NSCLC
ACHN renal = system: ACHN renal
BT-549 breast = system: BT-549 breast
CAKI-1 renal = system: CAKI-1 renal
CCRF-CEM leukemia = system: CCRF-CEM leukemia
COLO 205 colon = system: COLO 205 colon
DU-145 prostate = system: DU-145 prostate
EKVX NSCLC = system: EKVX NSCLC
HCC-2998 colon = system: HCC-2998 colon
HCT-116 colon = system: HCT-116 colon
HCT-15 colon = system: HCT-15 colon
HL-60(TB) leukemia = system: HL-60(TB) leukemia
HOP-62 NSCLC = system: HOP-62 NSCLC
HS 578T breast = system: HS 578T breast
HT29 colon = system: HT29 colon
IGROV1 ovarian = system: IGROV1 ovarian
KM12 colon = system: KM12 colon
LOX IMVI melanoma = system: LOX IMVI melanoma
M14 melanoma = system: M14 melanoma
MALME-3M melanoma = system: MALME-3M melanoma
MCF7 breast = system: MCF7 breast
MDA-MB-231 breast = system: MDA-MB-231 breast
MDA-MB-435 = system: MDA-MB-435
MOLT-4 leukemia = system: MOLT-4 leukemia
NCI-H23 lung = system: NCI-H23 lung
NCI-H460 lung = system: NCI-H460 lung
NCI-H522 lung = system: NCI-H522 lung
NCI/ADR-RES ovarian = system: NCI/ADR-RES ovarian
OVCAR-4 ovarian = system: OVCAR-4 ovarian
OVCAR-5 ovarian = system: OVCAR-5 ovarian
OVCAR-8 ovarian = system: OVCAR-8 ovarian
PC-3 prostate = system: PC-3 prostate
RPMI-8226 leukemia = system: RPMI-8226 leukemia
SF-268 CNS = system: SF-268 CNS
SF-295 CNS = system: SF-295 CNS
SF-539 CNS = system: SF-539 CNS
SK-MEL-28 melanoma = system: SK-MEL-28 melanoma
SK-MEL-5 melanoma = system: SK-MEL-5 melanoma
SN12C renal = system: SN12C renal
SNB-19 CNS = system: SNB-19 CNS
SR leukemia = system: SR leukemia
SW-620 colon = system: SW-620 colon
T-47D breast = system: T-47D breast
U251 CNS = system: U251 CNS
UACC-257 melanoma = system: UACC-257 melanoma
UACC-62 melanoma = system: UACC-62 melanoma
UO-31 renal = system: UO-31 renal
K-562 leukemia = system: K-562 leukemia
OVCAR-3 ovarian = system: OVCAR-3 ovarian

## CCN1CCN(Cc2ccc(C(=O)Nc3nc4ccc(Oc5ccnc(C(=O)NC)c5)cc4s3)cc2C(F)(F)F)CC1
HOP-92 NSCLC
  GI50: 1.01 µM
  TGI: 7.26 µM
NCI-H226 lung
  GI50: 2.03 µM
  TGI: > 100 µM
RXF 393 renal
  GI50: 1.48 µM
  TGI: 2.95 µM
SK-MEL-2 melanoma
  GI50: 1.23 µM
  TGI: 3.22 µM
SK-OV-3 ovarian
  GI50: 7.95 µM
  TGI: 32.2 µM
SNB-75 CNS
  GI50: 4.05 µM
  TGI: 20.8 µM
TK-10 renal
  GI50: 2.65 µM
  TGI: 6.83 µM

## CCCCCCCCNC(=O)c1ccc(Cn2c(CCCC)nc3c(N)nc4ccccc4c32)cc1
786-0 renal
  GI50: 1.71 µM
  TGI: 3.34 µM
A498 renal
  GI50: 2.35 µM
  TGI: 11.3 µM
A549 NSCLC
  GI50: 3.16 µM
  TGI: 12.3 µM
ACHN renal
  GI50: 1.72 µM
  TGI: 3.66 µM
BT-549 breast
  GI50: 1.91 µM
  TGI: 4.14 µM
CAKI-1 renal
  GI50: 1.65 µM
  TGI: 6.24 µM
CCRF-CEM leukemia
  GI50: 1.73 µM
  TGI: 4.96 µM
COLO 205 colon
  GI50: 2.04 µM
  TGI: 4.33 µM
DU-145 prostate
  GI50: 3.5 µM
  TGI: 12.1 µM
EKVX NSCLC
  GI50: 2.85 µM
  TGI: 17.2 µM
HCC-2998 colon
  GI50: 2.22 µM
  TGI: 5.39 µM
HCT-116 colon
  GI50: 1.08 µM
  TGI: 2.47 µM
HCT-15 colon
  GI50: 1.7 µM
  TGI: 3.87 µM
HL-60(TB) leukemia
  GI50: 1.83 µM
  TGI: 4.61 µM
HOP-62 NSCLC
  GI50: 2.57 µM
  TGI: 11.1 µM
HOP-92 NSCLC
  GI50: 0.0269 µM
  TGI: 0.838 µM
HS 578T breast
  GI50: 1.96 µM
  TGI: 4.33 µM
HT29 colon
  GI50: 2.49 µM
  TGI: 7.16 µM
IGROV1 ovarian
  GI50: 1.6 µM
  TGI: 4.49 µM
KM12 colon
  GI50: 2.49 µM
  TGI: 6.52 µM
LOX IMVI melanoma
  GI50: 1.42 µM
  TGI: 2.82 µM
M14 melanoma
  GI50: 1.74 µM
  TGI: 3.48 µM
MALME-3M melanoma
  GI50: 1.8 µM
  TGI: 3.51 µM
MCF7 breast
  GI50: 1.59 µM
  TGI: 3.57 µM
MDA-MB-231 breast
  GI50: 1.54 µM
  TGI: 3.55 µM
MDA-MB-435
  GI50: 1.69 µM
  TGI: 3.11 µM
MOLT-4 leukemia
  GI50: 2.44 µM
  TGI: 8.71 µM
NCI-H226 lung
  GI50: 14.5 µM
  TGI: 41.4 µM
NCI-H23 lung
  GI50: 2.86 µM
  TGI: 12.5 µM
NCI-H460 lung
  GI50: 1.94 µM
  TGI: 3.83 µM
NCI-H522 lung
  GI50: 1.89 µM
  TGI: 4.36 µM
NCI/ADR-RES ovarian
  GI50: 1.64 µM
  TGI: 3.42 µM
OVCAR-4 ovarian
  GI50: 1.65 µM
  TGI: 3.49 µM
OVCAR-5 ovarian
  GI50: 3.35 µM
  TGI: 13.8 µM
OVCAR-8 ovarian
  GI50: 2.04 µM
  TGI: 5.08 µM
PC-3 prostate
  GI50: 2.55 µM
  TGI: 11.5 µM
RPMI-8226 leukemia
  GI50: 1.37 µM
  TGI: 3.31 µM
RXF 393 renal
  GI50: 1 µM
  TGI: 2.79 µM
SF-268 CNS
  GI50: 2.01 µM
  TGI: 4.63 µM
SF-295 CNS
  GI50: 1.59 µM
  TGI: 3.19 µM
SF-539 CNS
  GI50: 1.68 µM
  TGI: 3.19 µM
SK-MEL-2 melanoma
  GI50: 1.94 µM
  TGI: 3.94 µM
SK-MEL-28 melanoma
  GI50: 1.63 µM
  TGI: 3.05 µM
SK-MEL-5 melanoma
  GI50: 1.57 µM
  TGI: 2.91 µM
SK-OV-3 ovarian
  GI50: 2.64 µM
  TGI: 7.47 µM
SN12C renal
  GI50: 1.92 µM
  TGI: 4.89 µM
SNB-19 CNS
  GI50: 2.8 µM
  TGI: 10.2 µM
SNB-75 CNS
  GI50: 1.72 µM
  TGI: 4.2 µM
SR leukemia
  GI50: 1.58 µM
  TGI: 5.18 µM
SW-620 colon
  GI50: 1.47 µM
  TGI: 3.2 µM
T-47D breast
  GI50: 1.75 µM
  TGI: 3.95 µM
TK-10 renal
  GI50: 2.2 µM
  TGI: 6.22 µM
U251 CNS
  GI50: 1.83 µM
  TGI: 3.98 µM
UACC-257 melanoma
  GI50: 1.86 µM
  TGI: 3.67 µM
UACC-62 melanoma
  GI50: 1.69 µM
  TGI: 3.29 µM
UO-31 renal
  GI50: 0.459 µM
  TGI: 3.3 µM

## CC(=O)Nc1nc(C)c(-c2csc(Nc3ccccc3)n2)s1
786-0 renal
  GI50: 3.25 µM
  TGI: 16.1 µM
A498 renal
  GI50: 1.49 µM
  TGI: 7.87 µM
A549 NSCLC
  GI50: 6.39 µM
  TGI: 27 µM
ACHN renal
  GI50: 4.25 µM
  TGI: 15.9 µM
BT-549 breast
  GI50: 2.06 µM
  TGI: 8.76 µM
CAKI-1 renal
  GI50: 4.15 µM
  TGI: 16.1 µM
CCRF-CEM leukemia
  GI50: 4.11 µM
  TGI: 82 µM
COLO 205 colon
  GI50: 7.66 µM
  TGI: 26.8 µM
DU-145 prostate
  GI50: 5.23 µM
  TGI: 17.5 µM
EKVX NSCLC
  GI50: 2.94 µM
  TGI: 13.6 µM
HCC-2998 colon
  GI50: 8.83 µM
  TGI: 21.4 µM
HCT-116 colon
  GI50: 3.76 µM
  TGI: 24.3 µM
HCT-15 colon
  GI50: 1.96 µM
  TGI: 13.5 µM
HL-60(TB) leukemia
  GI50: 10.5 µM
  TGI: 33.9 µM
HOP-62 NSCLC
  GI50: 6.55 µM
  TGI: 21.5 µM
HOP-92 NSCLC
  GI50: 1.57 µM
  TGI: 8.28 µM
HS 578T breast
  GI50: 2.35 µM
  TGI: 8.06 µM
HT29 colon
  GI50: 3.89 µM
  TGI: 21.8 µM
IGROV1 ovarian
  GI50: 2.14 µM
  TGI: 7.72 µM
K-562 leukemia
  GI50: 3.68 µM
  TGI: > 100 µM
KM12 colon
  GI50: 5.6 µM
  TGI: 19.6 µM
LOX IMVI melanoma
  GI50: 3.97 µM
  TGI: 17 µM
M14 melanoma
  GI50: 3.55 µM
  TGI: 16.4 µM
MALME-3M melanoma
  GI50: 2.12 µM
  TGI: 11.7 µM
MCF7 breast
  GI50: 2.16 µM
  TGI: 12 µM
MDA-MB-231 breast
  GI50: 6.59 µM
  TGI: 21.2 µM
MDA-MB-435
  GI50: 6.07 µM
  TGI: 19.7 µM
MOLT-4 leukemia
  GI50: 3.92 µM
  TGI: 28.6 µM
NCI-H226 lung
  GI50: 3.12 µM
  TGI: 15.4 µM
NCI-H23 lung
  GI50: 4.96 µM
  TGI: 20.7 µM
NCI-H460 lung
  GI50: 3.38 µM
  TGI: 14.1 µM
NCI-H522 lung
  GI50: 6.46 µM
  TGI: 22.9 µM
NCI/ADR-RES ovarian
  GI50: 5.16 µM
  TGI: 23.2 µM
OVCAR-3 ovarian
  GI50: 4.01 µM
  TGI: 15.7 µM
OVCAR-4 ovarian
  GI50: 6.5 µM
  TGI: 26.6 µM
OVCAR-5 ovarian
  GI50: 5.32 µM
  TGI: 20.6 µM
OVCAR-8 ovarian
  GI50: 6.81 µM
  TGI: 20.5 µM
PC-3 prostate
  GI50: 3 µM
  TGI: 23.5 µM
RPMI-8226 leukemia
  GI50: 3.57 µM
  TGI: 31.7 µM
SF-268 CNS
  GI50: 5.4 µM
  TGI: 19.3 µM
SF-295 CNS
  GI50: 2.32 µM
  TGI: 13 µM
SF-539 CNS
  GI50: 4.07 µM
  TGI: 15.5 µM
SK-MEL-2 melanoma
  GI50: 10.7 µM
  TGI: 24.4 µM
SK-MEL-28 melanoma
  GI50: 4.13 µM
  TGI: 17.2 µM
SK-MEL-5 melanoma
  GI50: 4.31 µM
  TGI: 16.2 µM
SK-OV-3 ovarian
  GI50: 3.43 µM
  TGI: 42.8 µM
SN12C renal
  GI50: 3.6 µM
  TGI: 16.3 µM
SNB-19 CNS
  GI50: 8.09 µM
  TGI: 20.6 µM
SNB-75 CNS
  GI50: 4.31 µM
  TGI: 18.1 µM
SR leukemia
  GI50: 2.37 µM
  TGI: > 100 µM
SW-620 colon
  GI50: 9.82 µM
  TGI: 23.1 µM
T-47D breast
  GI50: 1.21 µM
  TGI: 6.55 µM
TK-10 renal
  GI50: 8.6 µM
  TGI: 24 µM
U251 CNS
  GI50: 3.39 µM
  TGI: 20.8 µM
UACC-257 melanoma
  GI50: 10.9 µM
  TGI: 23.6 µM
UACC-62 melanoma
  GI50: 2.34 µM
  TGI: 12.6 µM
UO-31 renal
  GI50: 2.55 µM
  TGI: 12.9 µM
